For 16 molecules, MIC results are on record in patent US10030047B2 (Hoffmann-La Roche Inc., priority 2015, dated 2018).

≈ marks a conversion by molar mass, not a printed value.

The test deals with A. baumannii strain ATCC19606. The test is described as follows: Minimum inhibitory concentration (MIC) determination, microbroth dilution (CLSI). Type of test: cell-based. To be noted: Acinetobacter baumannii; A. baumannii ATCC19606; CAMHB; read after 20 hours; >=80% growth inhibition; read-out: ATCC19606 MIC. On the procedure:
The in vitro antimicrobial activity of the compounds was determined through microbroth minimum inhibitory concentration (MIC) methodology performed according to the Clinical and Laboratory Standard Institute guidelines (CLSI—M07-A9 Jan. 2012. Methods for Dilution Antimicrobial Susceptibility Tests for Bacteria That Grow Aerobically; Approved Standard—Ninth Edition, Clinical and Laboratory Standards Institute, Wayne/PA, US and the CLSI—M100-S24 Jan. 2014. Performance Standards for Antimicrobial Susceptibility Testing; Approved Standard—Fourth Informational Supplement, Clinical and Laboratory Standards Institute, Wayne/PA, US).
The compound stock solution was freshly prepared at 10× the required top concentration for the MIC determination, i.e. at 1280 mg/L, by reconstitution of the dry compound in 50:50 water:DMSO.
Polystyrene non-treated 96 wells microtiter plates were used for preparing panel containing compound serial twofold diluted at two times the final testing concentration (e.g. range from 64 to 0.06 μg/ml) in cation adjusted Mueller Hinton broth medium (CAMHB).
Inoculum was prepared by the “direct colony suspension method”. Colonies of A. baumannii ATCC19606 or clinical isolates were suspended in saline solution and adjusted to 0.5 McFarland, diluted 100 times in CAMHB broth and 50 μl added to each well (final concentration of cells ˜5×10^(5) CFU/ml and Final volume/well of 100 μl). Microtiter plates were sealed and incubated at 35±2° C.
MICs values were read after 20 hours of incubation and recorded as the lowest concentration of the antimicrobial that inhibits more or equal to 80% of growth of the organism as detected by the unaided eye and using a microtiter plate optical density reader (OD 600 nm).
Tables 2, 3, 4 and 5 provide the minimum inhibitory concentration (MIC) in microgram per milliliter of the compounds of present invention obtained against the A. baumannii strain ATCC19606 (Tables 2, 3, 4 and 5).
As to `CN1C(=O)[C@H](CCCCN)NC(=O)[C@H](CC(N)=O)NCc2cccnc2Sc2c(Cl)cc(Cl)cc2CNC(=O)[C@@H]1Cc1c[nH]c2ccccc12` [Example 127, 2-[(11S,14S,17S)-14-(4-Amino-butyl)-23,25-dichloro-17-(1H-indol-3-ylmethyl)-16-methyl-12,15,18-trioxo-2-thia-4,10,13,16,19-pentaaza-tricyclo[19.4.0.0*3,8*]pentacosa-1(25),3(8),4,6,21,23-hexaen-11-yl]-acetamide], the minimum inhibitory concentration (MIC) is 16 µg/mL (≈ 21.6 µM).

As to `CN1C(=O)[C@H](CCCCN)NC(=O)[C@H](CCCN)NCc2cccnc2Sc2c(Cl)cc(-c3cc[nH]c3)cc2CNC(=O)[C@@H]1Cc1c[nH]c2ccccc12` [Example 232, (11S,14S,17S)-14-(4-Amino-butyl)-11-(3-amino-propyl)-25-chloro-17-(1H-indol-3-ylmethyl)-16-methyl-23-(1H-pyrrol-3-yl)-2-thia-4,10,13,16,19-pentaaza-tricyclo[19.4.0.0*3,8*]pentacosa-1(25),3(8),4,6,21,23-hexaene-12,15,18-trione], the MIC worked out at 1 µg/mL (≈ 1.3 µM).

Turning to `CN1C(=O)[C@H](CCCCN)NC(=O)[C@H](CCCN)NCc2cccnc2Sc2c(cc(Br)cc2C(F)(F)F)CNC(=O)[C@@H]1Cc1c[nH]c2ccccc12` [Example 88, (11S,14S,17S)-14-(4-Amino-butyl)-11-(3-amino-propyl)-23-bromo-17-(1H-indol-3-ylmethyl)-16-methyl-25-trifluoromethyl-2-thia-4,10,13,16,19-pentaaza-tricyclo[19.4.0.0*3,8*]pentacosa-1(25),3,5,7,21,23-hexaene-12,15,18-trione], the MIC is 0.25 µg/mL (≈ 0.306 µM).

For `CN1C(=O)[C@H](CCCCN)NC(=O)[C@H](COCCN)NCc2cccnc2Sc2c(Cl)ccc(C(F)(F)F)c2CNC(=O)[C@@H]1Cc1c[nH]c2ccccc12` [Example 118, (11S,14S,17S)-14-(4-Amino-butyl)-11-(2-amino-ethoxymethyl)-25-chloro-17-(1H-indol-3-ylmethyl)-16-methyl-22-trifluoromethyl-2-thia-4,10,13,16,19-pentaaza-tricyclo[19.4.0.0*3,8*]pentacosa-1(25),3,5,7,21,23-hexaene-12,15,18-trione], the minimum inhibitory concentration (MIC) was determined as 0.5 µg/mL (≈ 0.633 µM).

Consider `CN1C(=O)[C@H](CCCCN)NC(=O)[C@H](CCCN)NCc2cccnc2Sc2c(Cl)cc(C(F)(F)F)cc2CNC(=O)[C@@H]1Cc1c[nH]c2ccccc12` [Example 62, (11S,14S,17S)-14-(4-Amino-butyl)-11-(3-amino-propyl)-25-chloro-17-(1H-indol-3-ylmethyl)-16-methyl-23-trifluoromethyl-2-thia-4,10,13,16,19-pentaaza-tricyclo[19.4.0.0*3,8*]pentacosa-1(25),3,5,7,21,23-hexaene-12,15,18-trione], for which the MIC worked out at 0.12 µg/mL (≈ 0.155 µM).

In the case of `Cc1cc(-c2cc(Cl)c3c(c2)CNC(=O)[C@H](Cc2c[nH]c4ccccc24)N(C)C(=O)[C@H](CCCCN)NC(=O)[C@H](CCCN)NCc2cccnc2S3)ccn1` [Example 105, (11S,14S,17S)-14-(4-Amino-butyl)-11-(3-amino-propyl)-25-chloro-17-(1H-indol-3-ylmethyl)-16-methyl-23-(2-methyl-pyridin-4-yl)-2-thia-4,10,13,16,19-pentaaza-tricyclo[19.4.0.0*3,8*]pentacosa-1(25),3,5,7,21,23-hexaene-12,15,18-trione], the minimum inhibitory concentration (MIC) is 1 µg/mL (≈ 1.26 µM).

For `CN1C(=O)[C@H](CCCCN)NC(=O)[C@H](CCCN)NCc2cccnc2Sc2c(Cl)cncc2CNC(=O)[C@@H]1Cc1c[nH]c2ccccc12` [Example 157, (7S,10S,13S)— 13-((1H-Indol-3-yl)methyl)-10-(4-aminobutyl)-7-(3-aminopropyl)-20-chloro-12-methyl-6,7,9,10,12,13,15,16-octahydrodipyrido[2,3-b:3′,4′-p][1,5,8,11,14]thiatetraazacycloheptadecine-8,11,14(5H)-trione], the minimal inhibitory concentration (MIC) was determined as 16 µg/mL (≈ 22.7 µM).

With `CN1C(=O)[C@H](CCCCN)NC(=O)[C@H](CCCN)NCc2cccnc2Sc2c(Cl)cc(C3=CCOCC3)cc2CNC(=O)[C@@H]1Cc1c[nH]c2ccccc12` [Example 138, (11S,14S,17S)-14-(4-Amino-butyl)-11-(3-amino-propyl)-25-chloro-23-(3,6-dihydro-2H-pyran-4-yl)-17-(1H-indol-3-ylmethyl)-16-methyl-2-thia-4,10,13,16,19-pentaaza-tricyclo[19.4.0.0*3,8*]pentacosa-1(25),3(8),4,6,21,23-hexaene-12,15,18-trione], the MIC turned out to be 0.5 µg/mL (≈ 0.635 µM).

For `CN1C(=O)[C@H](CCCCN)NC(=O)[C@H](CCCN)NCc2ccccc2Sc2cccc(Cl)c2CNC(=O)[C@@H]1Cc1c[nH]c2ccccc12` [Example 22, (12S,15S,18S)-15-(4-Amino-butyl)-18-(3-amino-propyl)-7-chloro-12-(1H-indol-3-ylmethyl)-13-methyl-2-thia-10,13,16,19-tetraaza-tricyclo[19.4.0.0*3,8*]pentacosa-1(25),3,5,7,21,23-hexaene-11,14,17-trione], the minimum inhibitory concentration (MIC) worked out at 32 µg/mL (≈ 45.4 µM).

With `CN1C(=O)[C@H](CCCCN)NC(=O)[C@H](CCCN)NCc2cccnc2Sc2c(Cl)cc(N3CCOCC3)cc2CNC(=O)[C@@H]1Cc1c[nH]c2ccccc12` [Example 92, (11S,14S,17S)-14-(4-Amino-butyl)-11-(3-amino-propyl)-25-chloro-17-(1H-indol-3-ylmethyl)-16-methyl-23-morpholin-4-yl-2-thia-4,10,13,16,19-pentaaza-tricyclo[19.4.0.0*3,8*]pentacosa-1(25),3,5,7,21,23-hexaene-12,15,18-trione], the minimum inhibitory concentration (MIC) is 0.5 µg/mL (≈ 0.633 µM).

In the case of `C[C@H](O)[C@@H]1NCc2cccnc2Sc2c(Cl)cc(Cl)cc2CNC(=O)[C@H](Cc2c[nH]c3ccccc23)N(C)C(=O)[C@H](CCCCN)NC1=O` [Example 106, (11S,14S,17S)-14-(4-Amino-butyl)-23,25-dichloro-11-((S)-1-hydroxy-ethyl)-17-(1H-indol-3-ylmethyl)-16-methyl-2-thia-4,10,13,16,19-pentaaza-tricyclo[19.4.0.0*3,8*]pentacosa-1(25),3,5,7,21,23-hexaene-12,15,18-trione], the MIC was determined as 2 µg/mL (≈ 2.75 µM).

`CCN1C(=O)[C@H](CCCCN)NC(=O)[C@H](CCCN)NCc2ccccc2Sc2ccc(OC)cc2CNC(=O)[C@@H]1Cc1c[nH]c2ccccc12` [Example 44, (12S,15S,18S)-15-(4-Amino-butyl)-18-(3-amino-propyl)-13-ethyl-12-(1H-indol-3-ylmethyl)-6-methoxy-2-thia-10,13,16,19-tetraaza-tricyclo[19.4.0.0*3,8*]pentacosa-1(21),3,5,7,22,24-hexaene-11,14,17-trione]: the MIC was determined as 0.5 µg/mL (≈ 0.7 µM).

As for `COc1ccc2c(c1)CNC(=O)[C@H](Cc1c[nH]c3ccccc13)N(C)C(=O)[C@H](CCCCN)NC(=O)[C@H](CCCN)NCc1ccccc1S2` [Example 7, (12S,15S,18S)-15-(4-Amino-butyl)-18-(3-amino-propyl)-12-(1H-indol-3-ylmethyl)-6-methoxy-13-methyl-2-thia-10,13,16,19-tetraaza-tricyclo[19.4.0.0*3,8*]pentacosa-1(21),3,5,7,22,24-hexaene-11,14,17-trione], the MIC is 0.5 µg/mL (≈ 0.714 µM).

For the molecule `CN1C(=O)[C@H](COCCN)NC(=O)[C@H](COCCN)NCc2cccnc2Sc2c(Cl)ccc(C(F)(F)F)c2CNC(=O)[C@@H]1Cc1c[nH]c2ccccc12` [Example 119, (11S,14S,17S)-11,14-Bis-(2-amino-ethoxymethyl)-25-chloro-17-(1H-indol-3-ylmethyl)-16-methyl-22-trifluoromethyl-2-thia-4,10,13,16,19-pentaaza-tricyclo[19.4.0.0*3,8*]pentacosa-1(25),3,5,7,21,23-hexaene-12,15,18-trione], the MIC was found to be 4 µg/mL (≈ 5.05 µM).

As for `Cc1n[nH]c(C)c1-c1cc(Cl)c2c(c1)CNC(=O)[C@H](Cc1c[nH]c3ccccc13)N(C)C(=O)[C@H](CCCCN)NC(=O)[C@H](CCCN)NCc1cccnc1S2` [Example 175, (11S,14S,17S)-14-(4-Amino-butyl)-11-(3-amino-propyl)-25-chloro-23-(3,5-dimethyl-1H-pyrazol-4-yl)-17-(1H-indol-3-ylmethyl)-16-methyl-2-thia-4,10,13,16,19-pentaaza-tricyclo[19.4.0.0*3,8*]pentacosa-1(25),3(8),4,6,21,23-hexaene-12,15,18-trione], the MIC turned out to be 2 µg/mL (≈ 2.5 µM).

Regarding `Cc1[nH]c2ccccc2c1C[C@H]1C(=O)NCc2cc(C(F)(F)F)cc(Cl)c2Sc2ncccc2CN[C@@H](CCCN)C(=O)N[C@@H](CCCCN)C(=O)N1C` [Example 74, (11S,14S,17S)-14-(4-Amino-butyl)-11-(3-amino-propyl)-25-chloro-16-methyl-17-(2-methyl-1H-indol-3-ylmethyl)-23-trifluoromethyl-2-thia-4,10,13,16,19-pentaaza-tricyclo[19.4.0.0*3,8*]pentacosa-1(25),3(8),4,6,21,23-hexaene-12,15,18-trione], the MIC amounted to 0.25 µg/mL (≈ 0.318 µM).
